The data set relates to CCRIS mutagenicity, Ames/micronucleus/aberration tests. In words: CCRIS mutagenicity studies.
Where [1] appears, read: Test System: AMES SALMONELLA TYPHIMURIUM, Strain/Indicator: TA100, Metabolic Activation: NONE, Method: STANDARD PLATE.

The structures appear in SMILES notation. Activity calls are given as the source filed them. The rule behind the calls is not given here.

For `Cc1c(N)nc(C)c2c1[nH]c1ccccc12`, the mutagenic call by setting is: (Test System: AMES SALMONELLA TYPHIMURIUM, Strain/Indicator: TA98, Metabolic Activation: HUMAN, BLOOD, CYTOSOL, Method: PREINCUBATION) “active; positive”; (Test System: AMES SALMONELLA TYPHIMURIUM, Strain/Indicator: TA98, Metabolic Activation: MONKEY, LIVER, S-9, Method: PREINCUBATION) “active; positive”; (Test System: AMES SALMONELLA TYPHIMURIUM, Strain/Indicator: TA98, Metabolic Activation: MOUSE, LIVER, MICROSOMES, TCDD, Method: STANDARD PLATE) “active; positive”; (Test System: AMES SALMONELLA TYPHIMURIUM, Strain/Indicator: TA98, Metabolic Activation: MOUSE, LIVER, MICROSOMES, Method: STANDARD PLATE) “active; positive”; (Test System: AMES SALMONELLA TYPHIMURIUM, Strain/Indicator: TA98, Metabolic Activation: RAT, BLADDER, S-9, PCB, Method: FLUCTUATION TEST) “active; positive”; (Test System: AMES SALMONELLA TYPHIMURIUM, Strain/Indicator: TA98, Metabolic Activation: RAT, HEPATOCYTES, AROCLOR 1254, Method: PREINCUBATION) “active; positive”. Further, the mutagenic call is “active; positive” (Test System: AMES SALMONELLA TYPHIMURIUM, Strain/Indicator: TA98, Metabolic Activation: RAT, LIVER, S-9, AROCLOR 1254, Method: PREINCUBATION); “active; positive” (Test System: AMES SALMONELLA TYPHIMURIUM, Strain/Indicator: TA100, Metabolic Activation: RAT, BLADDER, S-9, PCB, Method: FLUCTUATION TEST); “inactive; negative” (Test System: AMES SALMONELLA TYPHIMURIUM, Strain/Indicator: TA100, Metabolic Activation: RAT, LIVER, S-9, AROCLOR 1254, Method: PREINCUBATION); “active; positive” (Test System: AMES SALMONELLA TYPHIMURIUM, Strain/Indicator: YG1019, Metabolic Activation: RAT LIVER S-9, AROCLOR, Method: PREINCUBATION); “active; positive” (Test System: CHINESE HAMSTER V-79, Strain/Indicator: V-79/8-AZAGUANINE, Metabolic Activation: NONE, Method: SUSPENSION/PLATE); “active; positive” (Test System: CHINESE HAMSTER V-79, Strain/Indicator: V-79/8-AZAGUANINE, Metabolic Activation: S-9, Method: SUSPENSION/PLATE). Moreover, the mutagenic call was “inactive; negative” (Test System: CHINESE HAMSTER V-79, Strain/Indicator: V-79/OUABAIN, Metabolic Activation: NONE, Method: SUSPENSION/PLATE); “inactive; negative” (Test System: CHINESE HAMSTER V-79, Strain/Indicator: V-79/OUABAIN, Metabolic Activation: S-9, Method: SUSPENSION/PLATE); “active; positive” (Test System: UDS HAMSTER HEPATOCYTES, Strain/Indicator: THY INCORP, Metabolic Activation: NONE, Method: LIQUID SCINTILLATION COUNTING); “active; positive” (Test System: UDS HUMAN HEPATOCYTES, Strain/Indicator: THY INCORP, Metabolic Activation: NONE, Method: AUTORADIOGRAPHY); “active; positive” (Test System: UDS MOUSE HEPATOCYTES, Strain/Indicator: THY INCORP, Metabolic Activation: NONE, Method: AUTORADIOGRAPHY); “inactive; negative” (Test System: UDS RAT HEPATOCYTES, Strain/Indicator: THY INCORP, Metabolic Activation: NONE, Method: AUTORADIOGRAPHY). Further, the mutagenic call (Test System: UDS RAT HEPATOCYTES, Strain/Indicator: THY INCORP, Metabolic Activation: NONE, Method: LIQUID SCINTILLATION COUNTING) is “inactive; negative”.
`CC(C)c1ccccc1OC(=O)N(C)N=O`: the mutagenic call (Test System: E. COLI WP2, Strain/Indicator: WP2, Metabolic Activation: NONE, Method: STANDARD PLATE) is “active; positive”.
For `COc1ccc(-c2oc3ccccc3c(=O)c2N)cc1N`, the mutagenic call runs as follows: (Test System: AMES SALMONELLA TYPHIMURIUM, Strain/Indicator: TA100, Metabolic Activation: RAT LIVER S-9, AROCLOR 1254, Method: STANDARD PLATE) “active; positive”; (Test System: AMES SALMONELLA TYPHIMURIUM, Strain/Indicator: YG1042, Metabolic Activation: RAT LIVER S-9, AROCLOR 1254, Method: STANDARD PLATE) “active; positive”.
In the case of `CC(C)(c1ccc(O)cc1)c1ccc(O)cc1` (tested in a mixture with another compound), the mutagenic call is “active; positive (structural changes)” (End Point: IN VITRO CHROMOSOMAL ABERRATIONS, Test System: CHL CELLS, Metabolic Activation: NONE); “inactive; negative; authors report equivocal results for structural changes at 0.63 and 1” (End Point: IN VITRO CHROMOSOMAL ABERRATIONS, Test System: CHL CELLS, Metabolic Activation: RAT, LIVER, S-9, SODIUM PHENOBARBITAL AND 5,6-BENZOFLAVONE).
In the case of `O=C1OCC(CBr)=C1Br`, the mutagenic call under setting [1] was “active; positive”.
Take `O=C(N=c1sn(C(=O)c2ccc([N+](=O)[O-])cc2)c2ccc([N+](=O)[O-])cc12)c1ccc([N+](=O)[O-])cc1`: the mutagenic call (Test System: AMES SALMONELLA TYPHIMURIUM, Strain/Indicator: TA100, Metabolic Activation: S-9, Method: STANDARD PLATE) is “active; positive”.
Turning to `Cc1nc2ccccc2s1`, the mutagenic call reads like this: (Test System: AMES SALMONELLA TYPHIMURIUM, Strain/Indicator: TA98, Metabolic Activation: HAMSTER, LIVER, S-9, AROCLOR 1254, Method: STANDARD PLATE) “inactive; negative”; (Test System: AMES SALMONELLA TYPHIMURIUM, Strain/Indicator: TA98, Metabolic Activation: NONE, Method: STANDARD PLATE) “inactive; negative”; (Test System: AMES SALMONELLA TYPHIMURIUM, Strain/Indicator: TA98, Metabolic Activation: RAT, LIVER, S-9, AROCLOR 1254, Method: STANDARD PLATE) “inactive; negative”; (Test System: AMES SALMONELLA TYPHIMURIUM, Strain/Indicator: TA100, Metabolic Activation: HAMSTER, LIVER, S-9, AROCLOR 1254, Method: STANDARD PLATE) “inactive; negative”; under setting [1], “inactive; negative”; (Test System: AMES SALMONELLA TYPHIMURIUM, Strain/Indicator: TA100, Metabolic Activation: RAT, LIVER, S-9, AROCLOR 1254, Method: STANDARD PLATE) “inactive; negative”. Further, the mutagenic call is, setting by setting: (Test System: AMES SALMONELLA TYPHIMURIUM, Strain/Indicator: TA102, Metabolic Activation: HAMSTER, LIVER, S-9, AROCLOR 1254, Method: STANDARD PLATE) “inactive; negative”; (Test System: AMES SALMONELLA TYPHIMURIUM, Strain/Indicator: TA102, Metabolic Activation: NONE, Method: STANDARD PLATE) “inactive; negative”; (Test System: AMES SALMONELLA TYPHIMURIUM, Strain/Indicator: TA102, Metabolic Activation: RAT, LIVER, S-9, AROCLOR 1254, Method: STANDARD PLATE) “inactive; negative”; (Test System: AMES SALMONELLA TYPHIMURIUM, Strain/Indicator: TA1535, Metabolic Activation: HAMSTER, LIVER, S-9, AROCLOR 1254, Method: STANDARD PLATE) “inactive; negative”; (Test System: AMES SALMONELLA TYPHIMURIUM, Strain/Indicator: TA1535, Metabolic Activation: NONE, Method: STANDARD PLATE) “inactive; negative”; (Test System: AMES SALMONELLA TYPHIMURIUM, Strain/Indicator: TA1535, Metabolic Activation: RAT, LIVER, S-9, AROCLOR 1254, Method: STANDARD PLATE) “inactive; negative”. Besides, the mutagenic call runs as follows: (Test System: AMES SALMONELLA TYPHIMURIUM, Strain/Indicator: TA1537, Metabolic Activation: HAMSTER, LIVER, S-9, AROCLOR 1254, Method: STANDARD PLATE) “inactive; negative”; (Test System: AMES SALMONELLA TYPHIMURIUM, Strain/Indicator: TA1537, Metabolic Activation: NONE, Method: STANDARD PLATE) “inactive; negative”; (Test System: AMES SALMONELLA TYPHIMURIUM, Strain/Indicator: TA1537, Metabolic Activation: RAT, LIVER, S-9, AROCLOR 1254, Method: STANDARD PLATE) “inactive; negative”; (Test System: Mouse lymphoma, Strain/Indicator: L5178Y (tk+/tk-), Metabolic Activation: None, Method: Suspension/plate) “active; positive”; (Test System: Mouse lymphoma, Strain/Indicator: L5178Y (tk+/tk-), Metabolic Activation: Rat, Liver, S-9, Aroclor 1254, Method: Suspension/plate) “inactive; negative”.

The values above are taken from PubChem BioAssay AID1259407 (Chemical Carcinogenesis Research Information System (CCRIS), 2018).
